Laboratory results published in patent US20070072251A1, “In vivo imaging using peptide derivatives” (CTT Cancer Targeting Technologies OY, priority 2003, published 2007).
Where a SMILES comes first, the peptide text is derived from it. Bridges are numbered along the chain shown (N, C = ends). Where no end group is shown, it is not given here. The star is where a group is joined. DTPA = O=C(O)CN(CCN(CC(=O)O)CC(=O)O)CCN(CC(=O)O)CC(=O)*

Assays:
[1] = test system: THP-1 cell line; assay: Blocking of LLG-GFP binding to THP-1 cell line; type: cell-based
Protocol: What has been observed is that at 50 μM YLLG concentration 95% of LLG-GFPs binding is been blocked. When concentrations are been lowered to 20 μM still 70% inhibition occurs. […] However, due to the unspecific binding of peptide to the plastic walls of the container and the relative high concentrations of LLG-GFP needed for signal nanomolar scale, experiments can not been performed with this setup on its current already un-optimized state.

[2] = test system: accumulation of cells in peritoneal cavity; assay: Inhibition of leukocyte migration into thioglycolate inflamed peritoneal cavity; type: in vivo, Balb/c mice; conditions: 1 mg/kg iv
Protocol: To induce inflammation, female Balb/c mice were injected intraperitoneally with 1 ml of 3% Thioglycolate Broth (TG), three animals/group. Mice in the control group were injected iv with plain vehicle PBS-10% DMSO, and mice in the peptide group were injected iv with 1 mg/kg YADGACPCFLLGCC in PBS-10% DMSO. After 60 or 120 minutes, the mice were sacrificed. Cells in peritoneal cavity were collected by lavage with 5 ml PBS-5 mM EDTA, and counted with a hemocytometer.
In this experiment different cell populations were not distinguished. However, once again, YADGACPCFLLGCC reduced the accumulation of cells in experimental inflammation in vivo by 78% after 60 minutes and 52% after 120 minutes (FIG. 9).

[3] = test system: human myelomonocytic leukemia U937 cell line; assay: Tumor targeting of radiolabelled LLG derivatives in mouse model of human myelomonocytic leukemia (gamma imaging, tissue counting); type: in vivo
From the text: (§1) I-125 label, mouse model of human myelomonocytic leukemia. Planar gamma image. In these figures animals have been injected with radiolabelled peptide and anesthesized animals have been imaged under gamma camera (pinhole collimator, Picker SX-300 gamma camera).
(§2) The radiolabelled peptide derivatives were imaged at different time points using gamma camera in order to study tumor uptake in vivo as a function of time. After last imaging, tumor tissue were extirpated and counted for radioactivity. Detailed microdistribution was studied using quantitative autoradiography.
(§3) The peptide was labelled using In-111 label and direct iodination, as well as cDTPA.
(§4) The peptide was labelled using In-111 label and direct iodination and cDTPA. […] In this model absolute tumor-to-blood ratio was 4.7 at 24 hrs.

[4] = Biodistribution of I-125 labelled LLG in mice; type: in vivo; conditions: 30 min and 180 min after tail vein injection
Protocol: LLG (YADGACPCFLLGCC) was labelled with I-125, and the purified peptide (40 μg; ˜500 kBq) was injected into the tail vein of mice in the volume of […]. At 30 min and 180 min after peptide injection, the mice were sacrificed and their blood and tissues were collected to measure the radioactivity. Results are expressed as percentage of injected dose per 1.0 g tissue (% D/g) (FIG. 11). All values are indicated as the mean±SD of 3 mice.

[5] = test system: integrin I-domain; assay: BIACORE affinity of LLG to integrin; type: binding; conditions: 134 nM-134 μM; not detectable due to the small size of the peptide
Protocol: We examined the affinity of LLG to integrin using BIACORE. In this method, purified integrin I-domain was immobilized on the gold coated carboxymethylated dextran chip. The immobilization succeeded, and in various channels a RU between 2000-4000 was obtained. Various concentrations (3.3 nM-33 μM) of LLG-GST or GST were tested for their ability to bind to the I-domain. Reaction buffer was 10 mM HEPES (pH 7.4)-150 mM NaCl, with or without 1 mM MgCl2. […] Addition of detergent P20 0.05% could not diminish the background.
In another set of experiment, plain LLG peptide was used for affinity testing. The concentration of the tested peptide varied between 134 nM-134 μM. […] The BIACORE method is currently under development, and we intend to study the affinity again with a peptide coupled to a higher molecular weight, inert carrier molecule.

[6] = test system: E. coli abscess; assay: LLG targeting to E. coli abscess in rabbits (gamma camera imaging, gamma-counter biodistribution); type: in vivo, New Zealand White rabbits
Protocol: (§5) In this experiment, the targeting of LLG to sites of inflammation was examined in Wistar rats and New Zealand White rabbits, by inducing an abscess with approximately 1×10^9 colony-forming units of Staphylococcus aureus or Escherichia coli injected into the left tight muscle. During the procedure, the animals were anesthetized. After 24 hours, when swelling of the muscle was apparent, the In-111 radiolabeled peptide CPCFLLGCC was injected i.v. and accumulation of the peptide was followed with gamma camera imaging. The peptide was tested using 3 animals in both animal species.
The animals were followed-up for 4 hours. In late images urinary excretion disturbed the imaging, but signal-to-background ratio remained high. No other targets than abscess could be detected. Imaging would have been even more successful, if the rabbits would have been catheterized (or bladder emptied) before imaging session.
(§6) After the imaging period, animals were sacrificed, various tissues were collected and the accumulated radioactivity was measured using a gamma-counter. In FIG. 7A, the amount of accumulated peptide (expressed as percentage of injected dose/weight of the tissue measured; % ID/g) is shown for certain tissues of rabbits (mean of 3 animals). […] In these animals, the corresponding ratios were 4.5 and 2.0 for muscle and blood, respectively.

[7] = test system: S. aureus abscess; assay: LLG targeting to S. aureus abscess in rats (gamma camera imaging, gamma-counter biodistribution); type: in vivo, Wistar rats
Protocol: as §5
In rats assay, animals were followed-up for 2 hours after peptide injection. […] However, signal-to-background ratio remained high, and as in rabbits, no other targets than abscess could be detected.
as §6

[8] = Tumor targeting of radiolabelled LLG derivatives in mouse model of human myelomonocytic leukemia (gamma imaging, tissue counting); type: in vivo; conditions: mouse, in vivo, total radioactivity; at 24 hrs, intravenous injection, U937 model; read-out: absolute tumor-to-blood ratio
From the text: as §1, §2, §3, §4

[9] = % ID/g, mean of 3 animals, after imaging period

Question: With YADGACPCFLLGCC as the compound, how does the “inhibition of LLG-GFPs binding” value ([1]; 20 μM YLLG) read?
Answer: 70%

Question: And the LLG-GFPs binding blocked ([1]; 50 μM YLLG)?
Answer: 95%

Question: And the “IC 50 of blocking LLG-GFP binding” value ([1]; judged from FIG. 12)?
Answer: on nanomolar scale

Question: And the “reduction of accumulation of cells in experimental inflammation” value ([2]; after 60 minutes)?
Answer: 78%

Question: And the “reduction of accumulation of cells in experimental inflammation” value ([2]; after 120 minutes)?
Answer: 52%

Question: For “I-125-YADGA LLG peptide: YADGACPCFLLGCC labelled with I-125 by direct iodination (cysteine pairing not given here; also: I-125 label by direct iodination)”, which “tumor targeting (planar gamma image)” value ([3]; at 24 hrs after intravenous injection, FIGS. 2-3) is on record?
Answer: tumor targeting

Question: And the clearance [4]?
Answer: rapid clearance through kidneys

Question: What about the tissue accumulation ([4]; 40 μg) of the same compound?
Answer: did not accumulate in any tissue

Question: Which “specific binding to immobilized integrin I-domain” value [5] does the source give for “CPCFLLGCC [nonapeptide with two disulfide bridges, ligand to leukocyte β2 integrins]” here?
Answer: no specific binding could be detected

Question: With “In-111 radiolabeled peptide CPCFLLGCC: In-111 radiolabeled peptide CPCFLLGCC, cDTPA chelation (cysteine pairing not given here; also: In-111 radiolabel, cDTPA chelation)” as the compound, how does the “signal-to-background ratio in late images” value [6] read?
Answer: remained high

Question: What about the “accumulation in abscess compared to blood” value [6, 9] of the same compound?
Answer: 2.3 fold

Question: And the “accumulation in abscess compared to muscle” value [6, 9]?
Answer: 21.7 fold

Question: What about the “abscess targeting in gamma camera imaging” value ([6]; E. coli abscess in thigh muscle, i.v., followed 4 hours) of the same compound?
Answer: specific targeting into tight muscle, which was clearly visible within one hour

Question: What about the clearance ([6]; i.v.) of the same compound?
Answer: rapid clearance through kidneys

Question: And the “signal-to-background ratio in late images” value [7]?
Answer: remained high

Question: And the “abscess targeting in gamma camera imaging” value ([7]; S. aureus abscess, followed 2 hours)?
Answer: specific targeting

Question: What about the “accumulation ratio abscess to blood” value ([7]; after imaging period) of the same compound?
Answer: 2.0

Question: What about the “accumulation ratio abscess to muscle” value ([7]; after imaging period) of the same compound?
Answer: 4.5

Question: Which “tumor targeting (gamma image)” value ([3]; at 3 hrs after intravenous injection, FIG. 1) does the source give for `CC(C)C[C@@H]1NC(=O)[C@H](CC(C)C)NC(=O)[C@H](Cc2ccccc2)NC(=O)[C@@H]2CSSC[C@@H](C(=O)O)NC(=O)[C@H](CSSC[C@H](NC(=O)[C@H](C)NC(=O)CNC(=O)[C@H](CC(=O)O)NC(=O)[C@H](C)NC(=O)[C@H](Cc3ccc(O)cc3)NC(=O)CN(CCN(CCN(CC(=O)O)CC(=O)O)CC(=O)O)CC(=O)O)C(=O)N3CCC[C@H]3C(=O)N2)NC(=O)CNC1=O` [In-111-YADGA LLG, metal not drawn] ({DTPA}-YADGACPCFLLGCC-OH; disulfide 6-13, 8-14 (inferred); N-terminus and C-terminus assumed) here?
Answer: clearly tumor targeting

Question: And the tissue to tissue ratio at 24 h [8]?
Answer: 4.7
